# Assay results taken from article PMC9768162, “Synthesis of macrocyclic nucleoside antibacterials and their interactions with MraY” (Nature Communications, 2022).
# Several values for one entry are separate records, joined by “and”; a condition that tells them apart may be missing. Identical values can stand only once. Like-named read-outs stand apart in the source and are kept apart here.
# Experiments:
# [1] = target: T1, MraYSA (S. aureus MraY enzyme) (Staphylococcus aureus, UniProt Q2FZ93); parameters: His tag (inferred from His-Trap purification); made in house; host or cells: E. coli; method as in PMID 27622529; details: read-out: MraYSA inhibitory activity IC50; cited from earlier work
# T1 sequence (Q2FZ93 1-321): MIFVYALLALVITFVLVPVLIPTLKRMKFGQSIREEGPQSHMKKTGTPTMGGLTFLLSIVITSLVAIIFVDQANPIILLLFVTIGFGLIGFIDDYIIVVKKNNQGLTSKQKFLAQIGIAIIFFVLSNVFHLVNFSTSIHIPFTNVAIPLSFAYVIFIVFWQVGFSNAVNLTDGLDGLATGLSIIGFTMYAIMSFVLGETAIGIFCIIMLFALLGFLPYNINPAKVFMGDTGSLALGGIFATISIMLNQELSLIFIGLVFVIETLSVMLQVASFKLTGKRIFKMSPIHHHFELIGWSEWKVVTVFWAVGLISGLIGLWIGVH
# S. aureus [2] = details: S. aureus ATCC 29213; cited from earlier work
# MraYAA = MraYAA (Aquifex aeolicus, UniProt O66465); assay: UMP-Glo assay; details: for Normalized (UMP / Lipid I formed minus no-enzyme average), source data of Fig. 7a: replicates 1-3
# M. avium = assay: MIC in 7H9 liquid medium, 2 weeks; assay type: cell-based; details: Mycobacterium avium, ATCC25291, 336 h, M. avium ATCC 25291, 37 °C, minimum concentration inhibiting at least 50% of growth
# E. faecium = assay: Antibacterial activity, MIC by microdilution broth method (CLSI); assay type: cell-based, Enterococcus faecium; details: Enterococcus faecium, ATCC35667, 20 h, E. faecium ATCC 35667; CA-MHB, 37 °C, 20 h; read-out: MIC
# E. coli = assay: as above; details: E. coli ATCC 25922; CA-MHB, 37 °C, 20 h
# K. pneumoniae = assay: as above; assay type: cell-based; details: Klebsiella pneumoniae, ATCC13883; K. pneumoniae ATCC 13883; CA-MHB, 37 °C, 20 h
# [3] = target: T1, MraYSA (S. aureus MraY enzyme); assay: Fluorescence-based MraY inhibitory assay (dansylated Park's nucleotide); details: for MraYSA activity, source data of Fig. 7b, average: average of n=1-3
# A. baumannii = assay: Antibacterial activity, MIC by microdilution broth method (CLSI); assay type: cell-based; details: Acinetobacter baumannii, ATCC19606; A. baumannii ATCC 19606; CA-MHB, 37 °C, 20 h
# E. cloacae = assay: as above; assay type: cell-based; details: Enterobacter cloacae, ATCC13047; E. cloacae ATCC 13047; CA-MHB, 37 °C, 20 h
# P. aeruginosa = assay: as above; assay type: cell-based; details: Pseudomonas aeruginosa, ATCC27853; P. aeruginosa ATCC 27853; CA-MHB, 37 °C, 20 h
# Gram-positive bacteria = assay: Antibacterial activity against Gram-positive bacteria; assay type: cell-based; details: for antibacterial activity against Gram-positive bacteria: such as S. aureus and E. faecium
# S. aureus [4] = assay: Antibacterial activity, MIC by microdilution broth method (CLSI); assay type: cell-based, Staphylococcus aureus; details: Staphylococcus aureus, ATCC29213, 20 h, S. aureus ATCC 29213; CA-MHB, 37 °C, 20 h
# M. tuberculosis = assay: MIC in 7H9 liquid medium, 2 weeks; assay type: cell-based; details: Mycobacterium tuberculosis, 336 h, M. tuberculosis H37Rv, 37 °C, minimum concentration inhibiting at least 50% of growth
# [5] = tested on: Gram-negative bacterial strains; assay: Antibacterial activity against Gram-negative bacteria; assay type: cell-based; details: four Gram-negative bacterial strains examined
# MraYAA, sequence (O66465 whole entry): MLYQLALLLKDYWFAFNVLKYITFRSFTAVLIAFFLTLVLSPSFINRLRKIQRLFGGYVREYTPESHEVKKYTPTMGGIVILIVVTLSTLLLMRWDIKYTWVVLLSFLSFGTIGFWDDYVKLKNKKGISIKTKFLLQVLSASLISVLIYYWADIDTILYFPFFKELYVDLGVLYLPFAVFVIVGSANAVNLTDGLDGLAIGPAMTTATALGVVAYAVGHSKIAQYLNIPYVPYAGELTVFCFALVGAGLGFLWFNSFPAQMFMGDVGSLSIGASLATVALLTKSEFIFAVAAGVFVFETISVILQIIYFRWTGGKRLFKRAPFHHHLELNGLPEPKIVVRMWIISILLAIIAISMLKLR
Structure (SMILES),IC50 (MraYAA) [nM],"Normalized (UMP / Lipid I formed minus no-enzyme average), source data of Fig. 7a (MraYAA; inhibitor concentration 0.1)","Normalized (UMP / Lipid I formed minus no-enzyme average), source data of Fig. 7a (MraYAA; inhibitor concentration 0.4)","Normalized (UMP / Lipid I formed minus no-enzyme average), source data of Fig. 7a (MraYAA; inhibitor concentration 1)","Normalized (UMP / Lipid I formed minus no-enzyme average), source data of Fig. 7a (MraYAA; inhibitor concentration 5)","Normalized (UMP / Lipid I formed minus no-enzyme average), source data of Fig. 7a (MraYAA; inhibitor concentration 50)",MIC (M. avium) [µg/mL],MIC (E. faecium) [µg/mL],MIC (E. coli) [µg/mL],MIC (K. pneumoniae) [µg/mL],IC50 [3] [nM],"MraYSA activity, source data of Fig. 7b, average ([3]; compound 0.0001 µM)","MraYSA activity, source data of Fig. 7b, average ([3]; compound 0.001 µM)","MraYSA activity, source data of Fig. 7b, average ([3]; compound 0.01 µM)","MraYSA activity, source data of Fig. 7b, average ([3]; compound 0.1 µM)","MraYSA activity, source data of Fig. 7b, average ([3]; compound 1 µM)","MraYSA activity, source data of Fig. 7b, average ([3]; compound 10 µM)","MraYSA activity, source data of Fig. 7b, average ([3]; compound 100 µM)",MIC (A. baumannii) [µg/mL],MIC (E. cloacae) [µg/mL],also measured
CCCCCCCCCCCCCCCCC[C@H]1CN(C)[C@@H]([C@H](O[C@@H]2O[C@H](CN)[C@@H](O)[C@H]2O)[C@H]2O[C@@H](n3ccc(=O)[nH]c3=O)[C@H](O)[C@@H]2O)C(=O)N(C)[C@@H]1C(=O)O [Carbacaprazamycin],,,,,,,,,,,,,,,,,,,,,IC50 [1]: 3.8 nM; MIC (S. aureus [2]): 8 µg/mL
CCCCCCCCCCCCCCCC(=O)O[C@@H]1[C@@H]2CN(C[C@@H]1O)[C@H](C(=O)O)[C@@H]([C@H]1O[C@@H](n3ccc(=O)[nH]c3=O)[C@H](O)[C@@H]1O)O[C@@H]1O[C@H](CN2)[C@@H](O)[C@H]1O [SPM-1],170,22.1835 and 21.2199 and 20.7564,6.5859 and 6.3347 and 6.5433,4.5308 and 4.5928 and 4.1831,0.1572 and 0.6868 and 0.8992,0.4734 and -0.0522 and 0.3348,2,4,>64,> 64,9.1,94.43,84.3881,49.3175,11.924,3.067,2.786,7.015,> 64,> 64,"Normalized (UMP / Lipid I formed minus no-enzyme average), source data of Fig. 7a (MraYAA; inhibitor concentration 0.025): 27.4002 and 27.6068 and 25.0152; Normalized (UMP / Lipid I formed minus no-enzyme average), source data of Fig. 7a (MraYAA; inhibitor concentration 0.05): 23.6062 and 21.9589 and 21.8339; Normalized (UMP / Lipid I formed minus no-enzyme average), source data of Fig. 7a (MraYAA; inhibitor concentration 0.2): 13.2781 and 11.6659 and 13.2137; Normalized (UMP / Lipid I formed minus no-enzyme average), source data of Fig. 7a (MraYAA; inhibitor concentration 0.3): 8.4302 and 9.0267 and 7.4669; Normalized (UMP / Lipid I formed minus no-enzyme average), source data of Fig. 7a (MraYAA; inhibitor concentration 0.8): 3.6877 and 2.5343 and 3.6699; MIC (P. aeruginosa): > 64 µg/mL; MIC (Gram-positive bacteria; range over S. aureus and E. faecium of Table 1, read-out: MIC against the Gram-positive pathogens): 2 to 4 µg/mL; antibacterial activity against Gram-positive bacteria (Gram-positive bacteria): active; MIC (S. aureus [4]): 2 µg/mL; MIC (M. tuberculosis): 16 µg/mL; antibacterial activity against Gram-negative bacterial strains [5]: inactive"
CCCCCCCCCCCCCCCC(=O)O[C@@H]1[C@H](O)CN2C[C@H]1NC[C@H]1O[C@@H](O[C@H]([C@H]3O[C@@H](n4ccc(=O)[nH]c4=O)[C@H](O)[C@@H]3O)[C@H]2C(=O)O)[C@H](O)[C@@H]1O [SPM-2],9200,34.6720 and 31.83 and 31.8908,29.3499 and 29.56 and 31.6856,31.9846 and 31.04 and 28.7608,29.9822 and 25.5 and 23.2193,4.6362 and 4.593 and 4.08,16,16,>64,> 64,330,104.091,99.892,103.991,72.6566,26.5839,7.955,4.902,> 64,> 64,"Normalized (UMP / Lipid I formed minus no-enzyme average), source data of Fig. 7a (MraYAA; inhibitor concentration 2.5): 26.0302 and 21.75 and 21.7826; Normalized (UMP / Lipid I formed minus no-enzyme average), source data of Fig. 7a (MraYAA; inhibitor concentration 12.5): 17.4410 and 14.04 and 12.8545; Normalized (UMP / Lipid I formed minus no-enzyme average), source data of Fig. 7a (MraYAA; inhibitor concentration 25): 11.3284 and 8.499 and 7.57; Normalized (UMP / Lipid I formed minus no-enzyme average), source data of Fig. 7a (MraYAA; inhibitor concentration 70): 3.9512 and 2.534 and 2.592; Normalized (UMP / Lipid I formed minus no-enzyme average), source data of Fig. 7a (MraYAA; inhibitor concentration 140): 2.0542 and 1.162 and 1.464; MIC (P. aeruginosa): > 64 µg/mL; MIC increase relative to SPM-1 (Gram-positive bacteria; Gram-positive pathogens): 4 fold; antibacterial activity against Gram-positive bacteria (Gram-positive bacteria): active; MIC (S. aureus [4]): > 64 µg/mL; MIC (M. tuberculosis): > 32 µg/mL; antibacterial activity against Gram-negative bacterial strains [5]: inactive"
